Experimental data as given in EPA's ToxValDB 9.5 (doi:10.2903/j.efsa.2010.1833).
≈ marks a conversion by molar mass, not a printed value.

How the values were obtained:
Mus musculus = conditions: acute, oral, mortality
Canidae = conditions: subchronic; duration: 90 days; oral; gavage; Dog Other; body weight
Rattus norvegicus = conditions: for LD50: acute, mortality
Tagia sp. = conditions: acute; duration: 14 days; mortality
Landoltia sp. = conditions: chronic/long-term; duration: 14 days; other
Lepomis macrochirus = conditions: acute; duration: 96 hours; mortality
Aleochara bilineata = conditions: chronic/long-term; duration: 77 days; reproduction
Pleurozium sp. = conditions: acute; duration: 72 hours
Folsomia candida = conditions: chronic/long-term; duration: 28 days; mortality
Coturnix japonica = conditions: acute; oral; diet; mortality

SMILES: CN=C=S [Methyl isothiocyanate]
- LD50 (Mus musculus; F): 100 mg/kg-day
- LD50 (Mus musculus; M): 120 mg/kg-day
- NOAEL (Canidae): 0.4 mg/kg-day
- NOAEL (Rattus norvegicus; reproduction developmental, body weight): 3 mg/kg-day

SMILES: CN1CSC(=S)N(C)C1 [Dazomet]
- LC50 (Colinus virginianus; acute, oral, diet, mortality): 197 mg/kg-day
- LD50 (Colinus virginianus; acute, oral, mortality): > 415 mg/kg-day
- NOEL (Colinus virginianus; reproduction developmental): 10.6 mg/kg-day
- LC50 (Tagia sp.): 6.5 mg/kg
- NOEC (Landoltia sp.): 0.306 mg/L
- LC50 (Lepomis macrochirus): 0.3 µg/mL (≈ 1.85 µM)
- LD50 (Rattus norvegicus; oral, F): 415 mg/kg-day
- LD50 (Rattus norvegicus; oral, M): 596 mg/kg-day
- NOAEL (Rattus norvegicus; chronic, duration: 2 years, oral, diet, hematological): 0.9 mg/kg-day
- NOAEL (Rattus norvegicus; developmental, development): 3 mg/kg-day
- NOAEL (Rattus norvegicus; reproduction developmental, reproduction): 18 mg/kg-day
- NOAEL (Rattus norvegicus; subchronic, duration: 90 days, oral, diet, organ weight): 1.5 mg/kg-day
- LEL (Aleochara bilineata): 485000 g/ha
- NOEL (Anas platyrhynchos; reproductive): 16.7 mg/kg-day
- LC50 (Anas platyrhynchos; short-term, oral, feed, mortality): > 341 mg/kg-day
- NOEC (Pleurozium sp.): 0.056 mg/L
- LEL (Folsomia candida): 485000 g/ha
- LC50 (Coturnix japonica): > 1220 mg/kg-day
